EP1145714A1, “DRUGS” (Takeda Chemical Industries, Ltd., priority 1998, dated 2000)

Experiments:
[1] = tested on: acute and delayed vomiting induced by cisplatin in ferrets; assay: Acute and delayed vomiting induced by cisplatin in ferrets, oral dosing once or twice daily; type: in vivo; conditions: cisplatin 5 mg/kg i.p.
Method: Male 4 to 6 ferrets (1.2 to 2.2 kg) per one group were used. Cisplatin was intraperitoneally given at 5 mg/5ml/kg. 30 minutes prior to cisplatin administration and 24 and 48 hours after cisplatin administration, predetermined doses of the compound No. 3 were orally given in case of dosing once daily. 30 minutes prior to cisplatin administration and 12, 24, 36, 48 and 60 hours after cisplatin administration, predetermined doses of the compound No. 3 were orally given in case of dosing twice daily. 30 minutes prior to the dosing of the compound No. 3, a small amount of a feed was given to the animals in any of the cases. Similarly, a predetermined volume of 0.5 % methyl cellulose solution was similarly given orally to a control animal group under no fasting. A predetermined dose of ondansetron was orally given to the animals under fasting. To a control animal group of ondansetron, a predetermined volume of physiological saline was orally given to the animals under fasting. The frequency of vomiting was counted in number, up to 72 hours after cisplatin administration.
The compound No. 3 was suspended in 0.5 % methyl cellulose solution, for oral dosing at predetermined doses at a ratio of 1 ml per 1 kg body weight. An injection of ondansetron at 0.2 w/v % concentration was orally given at a predetermined volume. Additionally, 0.5 % methyl cellulose solution was orally given at a ratio of 1 ml per 1 kg body weight, while physiological saline was orally given at a ratio of 0.5 to 1.5 ml per 1 kg body weight. The data relating to the frequency of vomiting, the time period (latency) until first vomiting and the time period from the occurrence of vomiting to the termination thereof were statistically analyzed by the Dunnett test, with reference to the difference from the control group.
The acute vomiting suppression ratio, delayed vomiting suppression ratio and total vomiting suppression ratio were calculated by the following formula. [Frequency of retching or vomiting in control] - [Frequency of retching or vomiting in animals dosed with compound No. 3] / [Frequency of retching or vomiting in control] x 100 (%) [formula]

[2] = tested on: methotrexate-induced delayed vomiting in dogs; assay: Methotrexate-induced delayed vomiting in dogs, oral dosing; type: in vivo, beagle dogs; conditions: methotrexate 2.5 mg/kg i.v.; for Frequency of vomiting (mean ± SD), Total frequency / Number of dogs with vomiting/number of tested dogs: 72 hours
Method: 3 or 4 beagle dogs (8.3 to 12.6 kg), male or female per one group were used. Methotrexate was intravenously administered at 2.5 mg/ml/kg. 8, 24 and 48 hours after methotrexate dosing, predetermined doses of the compound No. 3, ondansetron and 0.5% methyl cellulose solution were orally given. The compound No. 3 and 0.5 % methyl cellulose solution were dosed 30 minutes after a small amount of a feed was given to the animals, while ondansetron was dosed to the animals under fasting. The frequency of vomiting was counted in number, up to 72 hours after methotrexate dosing. The compound No. 3 was suspended in 0.5 % methyl cellulose solution and was then orally dosed at a ratio of 0.25 to 1 ml per 1 kg body weight. A predetermined volume of an ondansetron injection at a concentration of 0.2 w/v % was orally dosed. Additionally, 0.5 % methyl cellulose solution was orally given at a ratio of 1 ml per 1 kg body weight. The data relating to the frequency of vomiting, the latency and the time period from the occurrence of vomiting to the termination thereof were statistically analyzed by the Dunnett test, with reference to the difference from the control group.
The delayed vomiting suppression ratio and the suppression ratio of the total frequency of vomiting were calculated by the following formula.

[3] = 10 mg/kg p.o. once daily, listed as compound No. 3

Cc1ccc(-c2c3n(c(=O)c4ncccc24)CC[C@@H](C)CN(Cc2cc(C(F)(F)F)cc(C(F)(F)F)c2)C3=O)cc1 [Cpd. No.3, (9R)-7-[3,5-bis(trifluoromethyl)benzyl]-6,7,8,9,10,11-hexahydro-9-methyl-5-(4-methylphenyl)-6,13-dioxo-13H-[1,4]diazocino[2,1-g][1,7]naphthylidine]
On day 0 (0-24 hours): frequency of retching and vomiting (mean ± SD) ([1]; 3 mg/kg × 2 p.o., twice daily): 6.0 ± 4.5 | On day 0 (0-24 hours): number of ferrets with vomiting/ number of tested ferrets ([1]; 3 mg/kg × 2 p.o., twice daily): 2/4 | On days 1-2(24-48 hours): frequency of retching and vomiting (mean ± SD) ([1]; 3 mg/kg × 2 p.o., twice daily): 145.0 ± 50.5 b | On days 1-2(24-48 hours): number of ferrets with vomiting/ number of tested ferrets ([1]; 3 mg/kg × 2 p.o., twice daily): 4/4 | Total frequency of retching and vomiting (on days 0-2; 0-72 hours) ([1]; 3 mg/kg × 2 p.o., twice daily): 150.8 ± 53.1 b | Acute vomiting suppression ratio (0 to 24 hours after cisplatin dosing) [1, 3]: 83% | Delayed vomiting suppression ratio (24 to 72 hours after cisplatin dosing) [1, 3]: 65% | Acute vomiting suppression ratio (0 to 24 hours after cisplatin dosing) ([1]; 10 mg/kg p.o., once daily): 83 % NS | Delayed vomiting suppression ratio (0 to 72 hours after cisplatin dosing) ([1]; 10 mg/kg p.o., once daily): 70 % b | Delayed vomiting suppression ratio (24 to 72 hours after cisplatin dosing) ([1]; 10 mg/kg p.o., once daily): 65 % a | Duration (in hour; mean ± SD) ([1]; 10 mg/kg p.o., once daily): 51.4 ± 7.0 a hour | Effect on delayed vomiting induced by cisplatin (in words) ([1]; 10 mg/kg p.o., once daily): prominently suppressed | Latency (in hour; mean ± SD) ([1]; 10 mg/kg p.o., once daily): 16.2 ± 5.6 h | On day 0 (0-24 hours): frequency of retching and vomiting (mean ± SD) ([1]; 10 mg/kg p.o., once daily): 19.0 ± 11.0 b | On day 0 (0-24 hours): number of ferrets with vomiting/ number of tested ferrets ([1]; 10 mg/kg p.o., once daily): 3/4 | On days 1-2(24-48 hours): frequency of retching and vomiting (mean ± SD) ([1]; 10 mg/kg p.o., once daily): 120.5 ± 5.0 a | On days 1-2(24-48 hours): number of ferrets with vomiting/ number of tested ferrets ([1]; 10 mg/kg p.o., once daily): 4/4 | Total frequency of retching and actual vomiting (on days 0-2; 0-72 hours) ([1]; 10 mg/kg p.o., once daily): 139.5 ± 8.3 b | Effect on methotrexate-induced vomiting (in words) ([2]; 0.01 mg/kg or higher p.o.): significantly suppressed | Effect on the time period from the occurrence of vomiting to the termination thereof (in words) ([2]; 0.01 mg/kg or higher p.o.): significantly shortened | Delayed vomiting suppression ratio (24 to 72 hours after MIX dosing) ([2]; 0.01 mg/kg p.o. once daily): 60 % b | Suppression ratio of total frequency of vomiting (0 to 72 hours after MTX dosing) ([2]; 0.01 mg/kg p.o. once daily): 62 % b | Duration (in hour; mean ± SD) ([2]; 0.01 mg/kg p.o.): 21.8 ± 5.8 a hour | Frequency of vomiting (mean ± SD), Day 0 (0-24 hours) ([2]; 0.01 mg/kg p.o.): 0 b | Frequency of vomiting (mean ± SD), Days 1 + 2 (24 - 72 hours) ([2]; 0.01 mg/kg p.o.): 4.7 ± 0.7 b | Latency (in hour; mean ± SD) ([2]; 0.01 mg/kg p.o.): 33.8 ± 4.8 h | Frequency of vomiting (mean ± SD), Total frequency ([2]; 0.01 mg/kg p.o.): 4.7 ± 0.7 b | Number of dogs with vomiting/number of tested dogs ([2]; 0.01 mg/kg p.o.): 3/3 | Delayed vomiting suppression ratio (24 to 72 hours after MIX dosing) ([2]; 0.1 mg/kg p.o. once daily): 74 % b | Suppression ratio of total frequency of vomiting (0 to 72 hours after MTX dosing) ([2]; 0.1 mg/kg p.o. once daily): 76 % b | Duration (in hour; mean ± SD) ([2]; 0.1 mg/kg p.o.): 15.0 ± 8.0 b hour | Frequency of vomiting (mean ± SD), Day 0 (0-24 hours) ([2]; 0.1 mg/kg p.o.): 0 b | Frequency of vomiting (mean ± SD), Days 1 + 2 (24 - 72 hours) ([2]; 0.1 mg/kg p.o.): 3.0 ± 1.0 b | Latency (in hour; mean ± SD) ([2]; 0.1 mg/kg p.o.): 35.7 ± 7.1 h | Frequency of vomiting (mean ± SD), Total frequency ([2]; 0.1 mg/kg p.o.): 3.0 ± 1.0 b | Number of dogs with vomiting/number of tested dogs ([2]; 0.1 mg/kg p.o.): 3/3 | Delayed vomiting suppression ratio (24 to 72 hours after MIX dosing) ([2]; 1 mg/kg p.o. once daily): 68 % b | Suppression ratio of total frequency of vomiting (0 to 72 hours after MTX dosing) ([2]; 1 mg/kg p.o. once daily): 70 % b | Duration (in hour; mean ± SD) ([2]; 1 mg/kg p.o.): 14.4 ± 6.1 b hour | Frequency of vomiting (mean ± SD), Day 0 (0-24 hours) ([2]; 1 mg/kg p.o.): 0 b | Frequency of vomiting (mean ± SD), Days 1 + 2 (24 - 72 hours) ([2]; 1 mg/kg p.o.): 3.7 ± 0.7 b | Latency (in hour; mean ± SD) ([2]; 1 mg/kg p.o.): 46.7 ± 8.7 h | Frequency of vomiting (mean ± SD), Total frequency ([2]; 1 mg/kg p.o.): 3.7 ± 0.7 b | Number of dogs with vomiting/number of tested dogs ([2]; 1 mg/kg p.o.): 3/3 | Delayed vomiting suppression ratio (24 to 72 hours after MIX dosing) ([2]; 3 mg/kg p.o. once daily): 85 % b | Suppression ratio of total frequency of vomiting (0 to 72 hours after MTX dosing) ([2]; 3 mg/kg p.o. once daily): 86 % b | Duration (in hour; mean ± SD) ([2]; 3 mg/kg p.o.): 6.4 ± 5.9 b hour | Frequency of vomiting (mean ± SD), Day 0 (0-24 hours) ([2]; 3 mg/kg p.o.): 0 b | Frequency of vomiting (mean ± SD), Days 1 + 2 (24 - 72 hours) ([2]; 3 mg/kg p.o.): 1.7 ± 0.3 b | Latency (in hour; mean ± SD) ([2]; 3 mg/kg p.o.): 45.5 ± 3.3 h | Frequency of vomiting (mean ± SD), Total frequency ([2]; 3 mg/kg p.o.): 1.7 ± 0.3 b | Number of dogs with vomiting/number of tested dogs ([2]; 3 mg/kg p.o.): 3/3 | Delayed vomiting suppression ratio (24 to 72 hours after MIX dosing) ([2]; 10 mg/kg p.o. once daily): 97 % b | Suppression ratio of total frequency of vomiting (0 to 72 hours after MTX dosing) ([2]; 10 mg/kg p.o. once daily): 98 % b | Duration (in hour; mean ± SD) ([2]; 10 mg/kg p.o.): 0 b hour | Effect on methotrexate-induced vomiting (in words) ([2]; 10 mg/kg p.o.): almost completely suppressed | Frequency of vomiting (mean ± SD), Day 0 (0-24 hours) ([2]; 10 mg/kg p.o.): 0 b | Frequency of vomiting (mean ± SD), Days 1 + 2 (24 - 72 hours) ([2]; 10 mg/kg p.o.): 0.3 ± 0.3 b | Latency (in hour; mean ± SD) ([2]; 10 mg/kg p.o.): 66.2 ± 5.8 b hour | Frequency of vomiting (mean ± SD), Total frequency ([2]; 10 mg/kg p.o.): 0.3 ± 0.3 b | Number of dogs with vomiting/number of tested dogs ([2]; 10 mg/kg p.o.): 1/4
